Experimental data published in PubChem BioAssay (NCI).
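Cultured in 96-well plates, cells were exposed to test compound for 48 hours across five concentrations. GI50: concentration for 50% inhibition of growth. TGI is the concentration that stops growth completely.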

Assays:
Assay in all cases: NCI-60 cell line screen, 48 h
HOP-62 NSCLC = tested on: HOP-62 NSCLC
IGROV1 ovarian = tested on: IGROV1 ovarian
A549 NSCLC = tested on: A549 NSCLC
MALME-3M melanoma = tested on: MALME-3M melanoma
HT29 colon = tested on: HT29 colon
SR leukemia = tested on: SR leukemia
NCI/ADR-RES ovarian = tested on: NCI/ADR-RES ovarian
OVCAR-3 ovarian = tested on: OVCAR-3 ovarian
RPMI-8226 leukemia = tested on: RPMI-8226 leukemia
NCI-H522 lung = tested on: NCI-H522 lung
HL-60(TB) leukemia = tested on: HL-60(TB) leukemia
CCRF-CEM leukemia = tested on: CCRF-CEM leukemia
T-47D breast = tested on: T-47D breast
K-562 leukemia = tested on: K-562 leukemia
LOX IMVI melanoma = tested on: LOX IMVI melanoma
SW-620 colon = tested on: SW-620 colon
HCC-2998 colon = tested on: HCC-2998 colon
DU-145 prostate = tested on: DU-145 prostate
UACC-257 melanoma = tested on: UACC-257 melanoma
COLO 205 colon = tested on: COLO 205 colon
786-0 renal = tested on: 786-0 renal
HOP-92 NSCLC = tested on: HOP-92 NSCLC
SNB-19 CNS = tested on: SNB-19 CNS
BT-549 breast = tested on: BT-549 breast
OVCAR-8 ovarian = tested on: OVCAR-8 ovarian
KM12 colon = tested on: KM12 colon
U251 CNS = tested on: U251 CNS
SK-MEL-5 melanoma = tested on: SK-MEL-5 melanoma
MDA-MB-435 = tested on: MDA-MB-435
MCF7 breast = tested on: MCF7 breast
PC-3 prostate = tested on: PC-3 prostate
SK-MEL-28 melanoma = tested on: SK-MEL-28 melanoma
MDA-MB-231 breast = tested on: MDA-MB-231 breast
NCI-H226 lung = tested on: NCI-H226 lung
SNB-75 CNS = tested on: SNB-75 CNS
M14 melanoma = tested on: M14 melanoma
RXF 393 renal = tested on: RXF 393 renal
HCT-15 colon = tested on: HCT-15 colon
OVCAR-4 ovarian = tested on: OVCAR-4 ovarian
NCI-H460 lung = tested on: NCI-H460 lung
SF-295 CNS = tested on: SF-295 CNS
HCT-116 colon = tested on: HCT-116 colon
MOLT-4 leukemia = tested on: MOLT-4 leukemia
SF-268 CNS = tested on: SF-268 CNS
ACHN renal = tested on: ACHN renal
OVCAR-5 ovarian = tested on: OVCAR-5 ovarian
SF-539 CNS = tested on: SF-539 CNS
EKVX NSCLC = tested on: EKVX NSCLC
SK-OV-3 ovarian = tested on: SK-OV-3 ovarian
A498 renal = tested on: A498 renal
SN12C renal = tested on: SN12C renal
NCI-H23 lung = tested on: NCI-H23 lung
CAKI-1 renal = tested on: CAKI-1 renal
SK-MEL-2 melanoma = tested on: SK-MEL-2 melanoma
UO-31 renal = tested on: UO-31 renal
UACC-62 melanoma = tested on: UACC-62 melanoma

Clc1ccc(Cn2c(CN3CCCC3)nc3ccccc32)cc1
GI50 (HOP-62 NSCLC): 20.8 µM
TGI (HOP-62 NSCLC): 61.5 µM
GI50 (IGROV1 ovarian): 23.3 µM
TGI (IGROV1 ovarian): > 100 µM
GI50 (A549 NSCLC): 26.9 µM
TGI (A549 NSCLC): > 100 µM
GI50 (MALME-3M melanoma): 14.9 µM
TGI (MALME-3M melanoma): 33.4 µM
GI50 (HT29 colon): 15.5 µM
TGI (HT29 colon): 38.4 µM
GI50 (SR leukemia): 23.5 µM
TGI (SR leukemia): 75.4 µM
GI50 (NCI/ADR-RES ovarian): 24.3 µM
TGI (NCI/ADR-RES ovarian): > 100 µM
GI50 (OVCAR-3 ovarian): 18.4 µM
TGI (OVCAR-3 ovarian): 47.7 µM
GI50 (RPMI-8226 leukemia): 16.4 µM
TGI (RPMI-8226 leukemia): 41.7 µM
GI50 (NCI-H522 lung): 16.3 µM
TGI (NCI-H522 lung): 33.7 µM
GI50 (HL-60(TB) leukemia): 23.8 µM
TGI (HL-60(TB) leukemia): 65.2 µM
GI50 (CCRF-CEM leukemia): 27 µM
TGI (CCRF-CEM leukemia): > 100 µM
GI50 (T-47D breast): 19.7 µM
TGI (T-47D breast): 83.5 µM
GI50 (K-562 leukemia): 19.4 µM
TGI (K-562 leukemia): > 100 µM
GI50 (LOX IMVI melanoma): 17 µM
TGI (LOX IMVI melanoma): 34.1 µM
GI50 (SW-620 colon): 14.8 µM
TGI (SW-620 colon): 33.3 µM
GI50 (HCC-2998 colon): 21.6 µM
TGI (HCC-2998 colon): 54 µM
GI50 (DU-145 prostate): 32.9 µM
TGI (DU-145 prostate): > 100 µM
GI50 (UACC-257 melanoma): 20 µM
TGI (UACC-257 melanoma): 55 µM
GI50 (COLO 205 colon): 17.6 µM
TGI (COLO 205 colon): 33.4 µM
GI50 (786-0 renal): 16.8 µM
TGI (786-0 renal): 32.9 µM
GI50 (HOP-92 NSCLC): 6.03 µM
TGI (HOP-92 NSCLC): 29.5 µM
GI50 (SNB-19 CNS): 22.1 µM
TGI (SNB-19 CNS): 57.1 µM
GI50 (BT-549 breast): 18.1 µM
TGI (BT-549 breast): 38.8 µM
GI50 (OVCAR-8 ovarian): 29.7 µM
TGI (OVCAR-8 ovarian): > 100 µM
GI50 (KM12 colon): 19.5 µM
TGI (KM12 colon): 53.4 µM
GI50 (U251 CNS): 15.2 µM
TGI (U251 CNS): 31.4 µM
GI50 (SK-MEL-5 melanoma): 13.3 µM
TGI (SK-MEL-5 melanoma): 26.2 µM
GI50 (MDA-MB-435): 17.1 µM
TGI (MDA-MB-435): 41.2 µM
GI50 (MCF7 breast): 17 µM
TGI (MCF7 breast): 32.6 µM
GI50 (PC-3 prostate): 19.6 µM
TGI (PC-3 prostate): 58.3 µM
GI50 (SK-MEL-28 melanoma): 24.6 µM
TGI (SK-MEL-28 melanoma): 65.5 µM
GI50 (MDA-MB-231 breast): 18.8 µM
TGI (MDA-MB-231 breast): 41.8 µM
GI50 (NCI-H226 lung): 14.8 µM
TGI (NCI-H226 lung): 41.8 µM
GI50 (SNB-75 CNS): 21.5 µM
TGI (SNB-75 CNS): 82.9 µM
GI50 (M14 melanoma): 17.1 µM
TGI (M14 melanoma): 34 µM
GI50 (RXF 393 renal): 14.1 µM
TGI (RXF 393 renal): 30.2 µM
GI50 (HCT-15 colon): 24.7 µM
TGI (HCT-15 colon): 87.7 µM
GI50 (OVCAR-4 ovarian): 21.9 µM
TGI (OVCAR-4 ovarian): 93.3 µM
GI50 (NCI-H460 lung): 14.5 µM
TGI (NCI-H460 lung): 34.4 µM
GI50 (SF-295 CNS): 14.3 µM
TGI (SF-295 CNS): 31.4 µM
GI50 (HCT-116 colon): 11 µM
TGI (HCT-116 colon): 24.7 µM
GI50 (MOLT-4 leukemia): 28.3 µM
TGI (MOLT-4 leukemia): 95.9 µM
GI50 (SF-268 CNS): 30.8 µM
TGI (SF-268 CNS): > 100 µM
GI50 (ACHN renal): 31.1 µM
TGI (ACHN renal): > 100 µM
GI50 (OVCAR-5 ovarian): 25.3 µM
TGI (OVCAR-5 ovarian): 87.8 µM
GI50 (SF-539 CNS): 18 µM
TGI (SF-539 CNS): 37.1 µM
GI50 (EKVX NSCLC): 17.5 µM
TGI (EKVX NSCLC): 67.7 µM
GI50 (SK-OV-3 ovarian): 20 µM
TGI (SK-OV-3 ovarian): 48.8 µM
GI50 (A498 renal): 11.3 µM
TGI (A498 renal): 31.3 µM
GI50 (SN12C renal): 30.1 µM
TGI (SN12C renal): > 100 µM
GI50 (NCI-H23 lung): 19 µM
TGI (NCI-H23 lung): 59.9 µM
GI50 (CAKI-1 renal): 14.7 µM
TGI (CAKI-1 renal): 54.8 µM
GI50 (SK-MEL-2 melanoma): 17.8 µM
TGI (SK-MEL-2 melanoma): 34.6 µM
GI50 (UO-31 renal): 12.4 µM
TGI (UO-31 renal): 36.5 µM
GI50 (UACC-62 melanoma): 17.4 µM
TGI (UACC-62 melanoma): 47.3 µM
